Measured values as given in patent US12617797B2, “Substituted pyrazolo [1,5-a]pyrimidines having multimodal activity against pain” (ESTEVE PHARMACEUTICALS, S.A., priority 2020, dated 2026).

Legend:
[1] = target: Human α2δ-1 subunit of Cav2.2 calcium channel (Homo sapiens, UniProt P54289); experiment: Human α2δ-1 subunit of Cav2.2 calcium channel assay ([3H]-gabapentin binding); details: binding to the α2δ-1 subunit of voltage-gated calcium channels expressed as Ki; + also covers inhibition between 1% and 50%
Description: Biological Activity Pharmacological Study Human α2δ-1 Subunit of Cav2.2 Calcium Channel Assay
Human α2δ-1 enriched membranes (2.5 μg) were incubated with 15 nM of radiolabeled [^3H]-Gabapentin in assay buffer containing Hepes-KOH 10 mM, pH 7.4. NSB (non specific binding) was measured by adding 10 μM pregabalin. The binding of the test compound was measured at either one concentration (% inhibition at 1 or 10 μM) or five different concentrations to determine affinity values (Ki). After 60 min incubation at 27° C., binding reaction was terminated by filtering through Multiscreen GF/C (Millipore) presoaked in 0.5% polyethyleneimine in Vacuum Manifold Station, followed by 3 washes with ice-cold filtration buffer containing 50 mM Tris-HCl, pH 7.4. Filter plates were dried at 60° C. for 1 h and 30 μL of scintillation cocktail were added to each well before radioactivity reading. Readings were performed in a Trilux 1450 Microbeta radioactive counter (Perkin Elmer).

[2] = target: T1, Human σ1 receptor (Homo sapiens, UniProt Q99720); experiment: Human σ1 receptor radioligand assay ([3H](+)-pentazocine binding, transfected HEK-293 membranes); details: binding to σ1 receptor expressed as Ki; + also covers inhibition between 1% and 50%; read-out: σ-1 binding
T1 construct: expressed in transfected cells; host or cells: HEK-293
Description: Human σ1 Receptor Radioligand Assay
Transfected HEK-293 membranes (7 μg) were incubated with 5 nM of [^3H](+)-pentazocine in assay buffer containing Tris-HCl 50 mM at pH 8. NBS (non-specific binding) was measured by adding 10 μM haloperidol. The binding of the test compound was measured at either one concentration (% inhibition at 1 or 10 μM) or five different concentrations to determine affinity values (Ki). Plates were incubated at 37° C. for 120 minutes. After the incubation period, the reaction mix was then transferred to MultiScreen HTS, FC plates (Millipore), filtered and plates were washed 3 times with ice-cold 10 mM Tris-HCL (pH7.4). Filters were dried and counted at approximately 40% efficiency in a MicroBeta scintillation counter (Perkin-Elmer) using EcoScint liquid scintillation cocktail.

T1 sequence (Q99720 whole entry): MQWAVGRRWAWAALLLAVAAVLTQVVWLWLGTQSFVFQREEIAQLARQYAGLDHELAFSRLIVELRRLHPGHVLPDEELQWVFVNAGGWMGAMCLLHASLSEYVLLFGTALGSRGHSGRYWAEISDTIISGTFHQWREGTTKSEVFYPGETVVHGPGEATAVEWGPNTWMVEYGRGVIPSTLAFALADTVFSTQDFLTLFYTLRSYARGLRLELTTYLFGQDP
Sequence of Human α2δ-1 subunit of Cav2.2 calcium channel (P54289 25-1103): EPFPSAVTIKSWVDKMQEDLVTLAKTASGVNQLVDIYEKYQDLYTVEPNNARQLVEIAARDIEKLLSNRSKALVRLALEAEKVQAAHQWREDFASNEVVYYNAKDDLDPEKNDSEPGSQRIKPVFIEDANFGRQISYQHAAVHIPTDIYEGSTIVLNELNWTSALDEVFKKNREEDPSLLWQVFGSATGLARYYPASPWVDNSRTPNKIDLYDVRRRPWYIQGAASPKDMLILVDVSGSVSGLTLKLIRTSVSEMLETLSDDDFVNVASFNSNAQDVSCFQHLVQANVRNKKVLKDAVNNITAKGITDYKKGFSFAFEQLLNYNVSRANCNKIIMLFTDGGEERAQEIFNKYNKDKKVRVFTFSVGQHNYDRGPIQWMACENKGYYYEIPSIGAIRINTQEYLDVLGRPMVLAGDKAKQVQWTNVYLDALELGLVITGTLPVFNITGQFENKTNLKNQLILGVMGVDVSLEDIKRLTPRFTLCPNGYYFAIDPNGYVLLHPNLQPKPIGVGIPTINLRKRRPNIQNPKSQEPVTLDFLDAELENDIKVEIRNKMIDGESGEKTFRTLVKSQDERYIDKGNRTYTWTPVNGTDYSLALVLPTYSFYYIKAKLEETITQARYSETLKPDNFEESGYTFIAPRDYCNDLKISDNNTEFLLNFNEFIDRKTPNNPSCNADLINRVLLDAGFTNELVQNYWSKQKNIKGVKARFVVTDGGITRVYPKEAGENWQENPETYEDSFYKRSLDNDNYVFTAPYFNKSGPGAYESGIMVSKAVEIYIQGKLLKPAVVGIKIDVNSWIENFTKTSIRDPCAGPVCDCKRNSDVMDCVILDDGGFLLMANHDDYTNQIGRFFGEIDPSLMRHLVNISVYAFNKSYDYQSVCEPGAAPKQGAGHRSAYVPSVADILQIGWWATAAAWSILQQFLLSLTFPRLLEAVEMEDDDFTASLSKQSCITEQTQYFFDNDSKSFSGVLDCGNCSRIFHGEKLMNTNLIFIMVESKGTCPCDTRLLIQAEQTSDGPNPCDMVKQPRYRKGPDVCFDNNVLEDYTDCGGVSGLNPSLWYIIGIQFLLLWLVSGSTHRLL

| SMILES | Ki [1] | Ki [2] |
| --- | --- | --- |
| CCCCN1CCCC(c2ccnc3cc(C)nn23)C1 (centres unmarked) [Example 64, 7-(1-Butylpiperidin-3-yl)-2-methylpyrazolo[1,5-a]pyrimidine] | > 5000 nM | < 500 nM |
| Cc1cc2nccc(C3CCCN(Cc4c(F)cccc4F)C3)n2n1 (centres unmarked) [Example 65, 7-(1-(2,6-Difluorobenzyl)piperidin-3-yl)-2-methylpyrazolo[1,5-a]pyrimidine] | 500 to 5000 nM | > 1000 nM |
| Cc1cc2nccc(C3CCCN(Cc4ccccn4)C3)n2n1 (centres unmarked) [Example 66, 2-Methyl-7-(1-(pyridin-2-ylmethyl)piperidin-3-yl)pyrazolo[1,5-a]pyrimidine] | > 5000 nM | > 1000 nM |
| Cc1cc2nccc(C3CCCN(CCc4ccccc4)C3)n2n1 (centres unmarked) [Example 67, 2-Methyl-7-(1-phenethylpiperidin-3-yl)pyrazolo[1,5-a]pyrimidine] | > 5000 nM | > 1000 nM |
| Cc1cc2nccc(C3CCCN(Cc4cccc(O)c4)C3)n2n1 (centres unmarked) [Example 68, 3-((3-(2-Methylpyrazolo[1,5-a]pyrimidin-7-yl)piperidin-1-yl)methyl)phenol] | > 5000 nM | > 1000 nM |
| CCN1CCCC(c2ccnc3c(-c4ccncc4)c(C)nn23)C1 (centres unmarked) [Example 69, 7-(1-Ethylpiperidin-3-yl)-2-methyl-3-(pyridin-4-yl)pyrazolo[1,5-a]pyrimidine] | > 5000 nM | > 1000 nM |
| CCCN1CCCC(c2ccnc3c(-c4ccncc4)c(C)nn23)C1 (centres unmarked) [Example 70, 2-Methyl-7-(1-propylpiperidin-3-yl)-3-(pyridin-4-yl)pyrazolo[1,5-a]pyrimidine] | > 5000 nM | > 1000 nM |
| Cc1nn2c(C3CCCN(CC(C)C)C3)ccnc2c1-c1ccncc1 (centres unmarked) [Example 71, 7-(1-Isobutylpiperidin-3-yl)-2-methyl-3-(pyridin-4-yl)pyrazolo[1,5-a]pyrimidine] | > 5000 nM | > 1000 nM |
| Cc1nn2c(C3CCCN(Cc4ccccn4)C3)ccnc2c1-c1ccncc1 (centres unmarked) [Example 72, 2-Methyl-7-(1-(pyridin-2-ylmethyl)piperidin-3-yl)-3-(pyridin-4-yl)pyrazolo[1,5-a]pyrimidine] | 500 to 5000 nM | > 1000 nM |
| Cc1cnc2c(-c3ccncc3)cnn2c1C1CCCN(CCc2ccccc2)C1 (centres unmarked) [Example 73, 6-Methyl-7-(1-phenethylpiperidin-3-yl)-3-(pyridin-4-yl)pyrazolo[1,5-a]pyrimidine] | > 5000 nM | < 500 nM |
| Cc1cnc2c(-c3ccncc3)cnn2c1C1CCCN(Cc2ccccn2)C1 (centres unmarked) [Example 74, 6-Methyl-7-(1-(pyridin-2-ylmethyl)piperidin-3-yl)-3-(pyridin-4-yl)pyrazolo[1,5-a]pyrimidine] | 500 to 5000 nM | > 1000 nM |
| Cc1ccccc1CN1CCCC(c2ccnc3c(-c4ccncc4)c(C)nn23)C1 (centres unmarked) [Example 75, 2-Methyl-7-(1-(2-methylbenzyl)piperidin-3-yl)-3-(pyridin-4-yl)pyrazolo[1,5-a]pyrimidine] | 500 to 5000 nM | > 1000 nM |
| Cc1ccc(CN2CCCC(c3ccnc4c(-c5ccncc5)c(C)nn34)C2)cc1 (centres unmarked) [Example 76, 2-Methyl-7-(1-(4-methylbenzyl)piperidin-3-yl)-3-(pyridin-4-yl)pyrazolo[1,5-a]pyrimidine] | 500 to 5000 nM | 500 to 1000 nM |
| Cc1cccc(CN2CCCC(c3ccnc4c(-c5ccncc5)c(C)nn34)C2)c1 (centres unmarked) [Example 77, 2-Methyl-7-(1-(3-methylbenzyl)piperidin-3-yl)-3-(pyridin-4-yl)pyrazolo[1,5-a]pyrimidine] | > 5000 nM | > 1000 nM |
| c1ccc(CN2CCCC(c3ccnc4cc(N5CCCC5)nn34)C2)cc1 (centres unmarked) [Example 78, 7-(1-Benzylpiperidin-3-yl)-2-(pyrrolidin-1-yl)pyrazolo[1,5-a]pyrimidine] | > 5000 nM | 500 to 1000 nM |
| CN(CCO)c1cc2nccc(C3CCCN(Cc4ccccc4)C3)n2n1 (centres unmarked) [Example 79, 2-((7-(1-Benzylpiperidin-3-yl)pyrazolo[1,5-a]pyrimidin-2-yl)(methyl)amino)ethanol] | > 5000 nM | > 1000 nM |
| CN(CCN)c1cc2nccc(C3CCCN(Cc4ccccc4)C3)n2n1 (centres unmarked) [Example 80, N^1-(7-(1-Benzylpiperidin-3-yl)pyrazolo[1,5-a]pyrimidin-2-yl)-N^1-methylethane-1,2-diamine] | 500 to 5000 nM | > 1000 nM |

| SMILES | Ki [1] | Ki [2] |
| --- | --- | --- |
| CNCCN(C)c1cc2nccc(C3CCCN(Cc4ccccc4)C3)n2n1 (centres unmarked) [Example 81, N^1-(7-(1-Benzylpiperidin-3-yl)pyrazolo[1,5-a]pyrimidin-2-yl)-N^1,N^2-dimethylethane-1,2-diamine] | 500 to 5000 nM | > 1000 nM |
| CN(c1cc2nccc(C3CCCN(Cc4ccccc4)C3)n2n1)C1CCNCC1 (centres unmarked) [Example 82, 7-(1-Benzylpiperidin-3-yl)-N-methyl-N-(piperidin-4-yl)pyrazolo[1,5-a]pyrimidin-2-amine] | 500 to 5000 nM | > 1000 nM |
| CNCCNc1cc2nccc(C3CCCN(Cc4ccccc4)C3)n2n1 (centres unmarked) [Example 83, N^1-(7-(1-Benzylpiperidin-3-yl)pyrazolo[1,5-a]pyrimidin-2-yl)-N^2-methylethane-1,2-diamine] | 500 to 5000 nM | > 1000 nM |
| CN[C@@H]1CCN(c2cc3nccc([C@@H]4CCCN(Cc5ccccc5)C4)n3n2)C1 [Example 84, (R)-1-(7-((R)-1-Benzylpiperidin-3-yl)pyrazolo[1,5-a]pyrimidin-2-yl)-N-methylpyrrolidin-3-amine] | 500 to 5000 nM | > 1000 nM |
| CN[C@H]1CCN(c2cc3nccc([C@H]4CCCN(Cc5ccccc5)C4)n3n2)C1 [Example 85, (S)-1-(7-((S)-1-Benzylpiperidin-3-yl)pyrazolo[1,5-a]pyrimidin-2-yl)-N-methylpyrrolidin-3-amine] | > 5000 nM | > 1000 nM |
| CN[C@H]1CCN(c2cc3nccc([C@@H]4CCCN(Cc5ccccc5)C4)n3n2)C1 [Example 86, (S)-1-(7-((R)-1-Benzylpiperidin-3-yl)pyrazolo[1,5-a]pyrimidin-2-yl)-N-methylpyrrolidin-3-amine] | 500 to 5000 nM | > 1000 nM |
| CN[C@@H]1CCN(c2cc3nccc([C@H]4CCCN(Cc5ccccc5)C4)n3n2)C1 [Example 87, (R)-1-(7-((S)-1-Benzylpiperidin-3-yl)pyrazolo[1,5-a]pyrimidin-2-yl)-N-methylpyrrolidin-3-amine] | 500 to 5000 nM | > 1000 nM |
| c1ccc(CN2CCCC(c3ccnc4c(N5CCCC5)cnn34)C2)cc1 (centres unmarked) [Example 88, 7-(1-Benzylpiperidin-3-yl)-3-(pyrrolidin-1-yl)pyrazolo[1,5-a]pyrimidine] | > 5000 nM | 500 to 1000 nM |
| Cc1nn2c(C3CCCN(Cc4ccccc4)C3)ccnc2c1N1CCCC1 (centres unmarked) [Example 89, 7-(1-Benzylpiperidin-3-yl)-2-methyl-3-(pyrrolidin-1-yl)pyrazolo[1,5-a]pyrimidine] | 500 to 5000 nM | 500 to 1000 nM |
| Cc1nn2c(C3CCCN(Cc4ccccc4)C3)ccnc2c1N (centres unmarked) [Example 90, 7-(1-Benzylpiperidin-3-yl)-2-methylpyrazolo[1,5-a]pyrimidin-3-amine] | > 5000 nM | > 1000 nM |
| N#Cc1cc2nccc(C3CCCN(Cc4ccccc4)C3)n2n1 (centres unmarked) [Example 91, 7-(1-Benzylpiperidin-3-yl)pyrazolo[1,5-a]pyrimidine-2-carbonitrile] | 500 to 5000 nM | > 1000 nM |
| CN(C)Cc1cc2nccc(C3CCCN(Cc4ccccc4)C3)n2n1 (centres unmarked) [Example 92, 1-(7-(1-Benzylpiperidin-3-yl)pyrazolo[1,5-a]pyrimidin-2-yl)-N,N-dimethylmethanamine] | 500 to 5000 nM | > 1000 nM |
| CNCc1cc2nccc(C3CCCN(Cc4ccccc4)C3)n2n1 (centres unmarked) [Example 93, 1-(7-(1-Benzylpiperidin-3-yl)pyrazolo[1,5-a]pyrimidin-2-yl)-N-methylmethanamine] | 500 to 5000 nM | > 1000 nM |
| c1ccc(CNCc2cc3nccc(C4CCCN(Cc5ccccc5)C4)n3n2)cc1 (centres unmarked) [Example 94, N-Benzyl-1-(7-(1-benzylpiperidin-3-yl)pyrazolo[1,5-a]pyrimidin-2-yl)methanamine] | 500 to 5000 nM | > 1000 nM |
| Cc1nn2c(C3CCCN(Cc4ccccc4)C3)ccnc2c1CO (centres unmarked) [Example 95, (7-(1-Benzylpiperidin-3-yl)-2-methylpyrazolo[1,5-a]pyrimidin-3-yl)methanol] | > 5000 nM | > 1000 nM |
| CNCc1c(C)nn2c(C3CCCN(Cc4ccccc4)C3)ccnc12 (centres unmarked) [Example 96, 1-(7-(1-Benzylpiperidin-3-yl)-2-methylpyrazolo[1,5-a]pyrimidin-3-yl)-N-methylmethanamine] | 500 to 5000 nM | > 1000 nM |
| Cc1nn2c(C3CCCN(Cc4ccccc4)C3)ccnc2c1CNCCc1ccccc1 (centres unmarked) [Example 97, N-((7-(1-Benzylpiperidin-3-yl)-2-methylpyrazolo[1,5-a]pyrimidin-3-yl)methyl)-2-phenylethanamine] | 500 to 5000 nM | < 500 nM |
